{"source": "ChEMBL document CHEMBL2069202", "about": "“Antiviral activity and synthesis of quaternized promazine derivatives against HSV-1” (Bioorg Med Chem Lett, 2012)", "key": {"[1]": {"system": "Human alphaherpesvirus 1", "experiment": "Antiviral activity against HSV-1 infected in african green monkey Vero cells assessed as inhibition of GFP gene expression after 48 hrs by RT-PCR analysis", "type": "functional, organism-based"}, "[2]": {"system": "Human alphaherpesvirus 1", "experiment": "Antiviral activity against HSV-1 infected in african green monkey Vero cells assessed as inhibition of viral replication after 48 hrs by GFP reduction assay", "type": "functional, organism-based"}, "[3]": {"system": "Human alphaherpesvirus 1", "experiment": "Antiviral activity against HSV-1 infected in african green monkey Vero cells assessed as inhibition of viral replication at 200 uM after 48 hrs by GFP reduction assay", "type": "functional, organism-based"}, "[4]": {"system": "Human alphaherpesvirus 1", "experiment": "Antiviral activity against HSV-1 infected in african green monkey Vero cells assessed as inhibition of viral replication at 50 uM after 48 hrs by GFP reduction assay", "type": "functional, organism-based"}, "[5]": {"system": "Human alphaherpesvirus 1", "experiment": "Antiviral activity against HSV-1 infected in african green monkey Vero cells assessed as inhibition of viral replication at 50 uM treated 2 hrs after post infection by GFP reduction assay", "type": "functional, organism-based"}, "[6]": {"system": "Human alphaherpesvirus 1", "experiment": "Antiviral activity against HSV-1 infected in african green monkey Vero cells assessed as inhibition of viral replication at 48 uM after 48 hrs by plaque reduction assay", "type": "functional, organism-based"}, "[7]": {"system": "Human alphaherpesvirus 1", "experiment": "Antiviral activity against HSV-1 infected in african green monkey Vero cells assessed as inhibition of viral replication at 50 uM after 48 hrs by GFP reduction assay relative to acyclovir", "type": "functional, organism-based"}, "[8]": {"system": "Human alphaherpesvirus 1", "experiment": "Antiviral activity against HSV-1 infected in african green monkey Vero cells assessed as inhibition of viral ICP4 gene expression after 48 hrs by RT-PCR analysis", "type": "functional, organism-based"}, "[9]": {"system": "Human alphaherpesvirus 1", "experiment": "Antiviral activity against HSV-1 infected in african green monkey Vero cells assessed as inhibition of viral replication at 48 uM after 48 hrs by GFP reduction assay", "type": "functional, organism-based"}, "[10]": {"system": "Human alphaherpesvirus 1", "experiment": "Antiviral activity against HSV-1 infected in african green monkey Vero cells assessed as inhibition of viral replication at 50 uM treated for 24 hrs measured 24 hrs after drug washout by GFP reduction assay", "type": "functional, organism-based"}, "[11]": {"system": "Vero", "experiment": "Cytotoxicity against african green monkey Vero cells up to 200 uM", "type": "cell-based", "conditions": "chlorocebus sabaeus"}}, "note": "The source made the active and inactive calls. The rule behind the calls is not given here.", "data": [{"smiles": "O[C@]12C=C(c3nccc4c3[nH]c3ccccc34)[C@@H]3CCN(CCCC/C=C\\CC1)C[C@@]31C[C@@H]3/C=C\\CCCCN3[C@H]12", "values": [{"measurement": "inhibition", "setting": "[1]", "result": "inactive"}]}, {"smiles": "C#CC[N+](C)(C)CCCN1c2ccccc2Sc2ccc(C(F)(F)F)cc21", "values": [{"measurement": "inhibition", "setting": "[2]", "result": "inactive"}]}, {"smiles": "C[N+](C)(CC#N)CCCN1c2ccccc2Sc2ccc(C(F)(F)F)cc21", "values": [{"measurement": "inhibition", "setting": "[2]", "result": "inactive"}]}, {"smiles": "CCCC[N+](C)(C)CCCN1c2ccccc2Sc2ccc(C(F)(F)F)cc21", "values": [{"measurement": "inhibition", "setting": "[3]", "result": "Active"}]}, {"smiles": "C[N+](C)(CCCN1c2ccccc2Sc2ccc(C(F)(F)F)cc21)Cc1ccccc1Cl", "values": [{"measurement": "inhibition", "setting": "[3]", "result": "Active"}, {"measurement": "inhibition", "setting": "[4]", "result": "inactive"}]}, {"smiles": "C=CC[N+](C)(C)CCCN1c2ccccc2Sc2ccc(C(F)(F)F)cc21", "values": [{"measurement": "inhibition", "setting": "[2]", "result": "inactive"}]}, {"smiles": "C#CC[N+](C)(C)CCCN1c2ccccc2Sc2ccccc21", "values": [{"measurement": "inhibition", "setting": "[2]", "result": "inactive"}]}, {"smiles": "C[N+](C)(CCCN1c2ccccc2Sc2ccc(C(F)(F)F)cc21)Cc1ccc(Cl)cc1.[Cl-]", "values": [{"measurement": "inhibition", "setting": "[5]", "result": "inactive"}, {"measurement": "inhibition", "setting": "[6]", "result": "Active"}, {"measurement": "inhibition", "setting": "[1]", "result": "Active"}, {"measurement": "inhibition", "setting": "[7]", "result": "Active"}, {"measurement": "inhibition", "setting": "[8]", "result": "Active"}, {"measurement": "inhibition", "setting": "[9]", "result": "Active"}, {"measurement": "inhibition", "setting": "[10]", "result": "inactive"}, {"measurement": "Activity", "setting": "[11]", "result": "Non-toxic"}]}, {"smiles": "C[N+](C)(CCCN1c2ccccc2Sc2ccc(C(F)(F)F)cc21)Cc1ccccc1", "values": [{"measurement": "inhibition", "setting": "[2]", "result": "inactive"}]}, {"smiles": "C[N+](C)(CCCN1c2ccccc2Sc2ccc(C(F)(F)F)cc21)Cc1cccc(Cl)c1", "values": [{"measurement": "inhibition", "setting": "[3]", "result": "Active"}, {"measurement": "inhibition", "setting": "[4]", "result": "inactive"}]}, {"smiles": "Nc1nc2c(ncn2COCCO)c(=O)[nH]1", "values": [{"measurement": "inhibition", "setting": "[5]", "result": "Active"}, {"measurement": "inhibition", "setting": "[6]", "result": "Active"}, {"measurement": "inhibition", "setting": "[1]", "result": "Active"}, {"measurement": "inhibition", "setting": "[4]", "result": "Active"}, {"measurement": "inhibition", "setting": "[8]", "result": "Active"}, {"measurement": "inhibition", "setting": "[9]", "result": "Active"}, {"measurement": "inhibition", "setting": "[10]", "result": "Active"}]}]}
